Assay results reported in patent publication US9459254B2, “Method for determining sensitivity to an anticancer agent” (KEIO UNIVERSITY, priority 2009, dated 2016).

What was measured:
[1] = compared with CPT-11; cited from earlier work
HCT116 cells [2] = experiment: MTS assay cell viability after drug exposure, HCT116
Description: (§4) Two colorectal cancer lines (HCT116 and DLD-1, obtained from ECACC) were exposed to a drug, and 48 hours and 72 hours after drug exposure, cell viability was determined by means of an MTS assay (CellTiter96™ AQueous One Solution Cell Proliferation Assay, Promega). Drug exposure conditions were as follows. 5-FU (single agent) was used at the following 11 concentrations: control (0 μM), 0.001 μM, 0.01 μM, 0.1 μM, 1 μM, 3 μM, 10 μM, 30 μM, 100 μM, 1,000 μM, and 10,000 μM. SN-38 (single agent) was used at the following 11 concentrations; control (0 nM), 0.001 nM, 0.01 nM, 0.1 nM, 0.3 nM, 1 nM, 3 nM, 10 nM, 30 nM, 100 nM, and 1,000 nM. In the case of 5-FU/SN-38 combination, 5-FU was used at 2 μM, 10 μM, 30 μM, and 100 μM (4 concentrations), and SN-38 was used at 0.001 nM, 0.01 nM, 0.1 nM, 0.3 nM, 1 nM, 3 nM, 10 nM, 30 nM, 100 nM, and 1,000 nM (10 concentrations); i.e., 40 concentrations were employed. […]
(§5) Sensitivity analysis was performed from viability data calculated from MTS assay results. The presence or absence of combined effect was determined through comparison of viability obtained by exposure to a combination with that obtained by exposure to a single agent at the same concentration as employed at the exposure to the combination.

HCT116 cells [3] = experiment: SELDI-TOF MS intracellular protein expression after drug exposure, HCT116; format: cell-based, human
Description: (§1) The 5-FU+SN-38 combination concentration was adjusted to the following four levels: 2 μM+10 nM, 2 μM+100 nM, 100 μM+10 nM, and 100 μM+100 nM, the 5-FU concentration (exposure to single agent) was adjusted to 2 μM and 100 μM, and the SN-38 concentration (exposure to single agent) was adjusted to 10 nM and 100 nM. In addition, the exposure test was conducted at a drug-free concentration (control). That is, nine concentrations in total were employed. Drug exposure time was adjusted to the following four periods of time: 0 hour (just before exposure), 4 hours, 24 hours, and 48 hours. After completion of exposure, cell count was performed, and intracellular proteins were extracted.
(§2) The medium was removed from the dish and washed thrice with ice-cooled PBS. The cells on the dish was collected by scraping with a rubber policeman. The thus-obtained cell suspension was transferred to a 1.5-mL microtube. The cell suspension was centrifuged at 4° C. and 1,200×g for 10 minutes, and the cells were recovered. After removal of the supernatant, a cell lysis buffer (9 mol/L urea, 2% CHAPS, 1 mM DTT, protease-inhibitor cocktail (Sigma)) was added in a volume of 200 μL with respect to 10,000,000 cells. The liquid was subjected to untrasonic treatment under cooling with ice. The thus-treated product was centrifuged at 4° C. and 16,000×g for 20 minutes, and the supernatant was quickly frozen with liquid nitrogen. The frozen product was stored at −80° C. before analysis. An aliquot of the supernatant was subjected to protein quantification (DC Protein Assay Kit, Bio-Rad).
(§3) The protein sample was mixed with a cell lysis buffer (excluding protease inhibitor), to thereby adjust the protein concentration to 2.5 mg/mL. The liquid was further mixed with a dilution/washing buffer (pH: 4.5, 50 mM sodium acetate buffer) (hereinafter referred to simply as “buffer”), to a protein concentration of 0.5 mg/mL. The thus-prepared sample (100 μL) was applied to spots of a cation-exchange ProteinChip array (CM10, Bio-Rad) which had been conditioned in advance with the same buffer. […]

DLD-1 cells [4] = experiment: MTS assay cell viability after drug exposure, DLD-1
Description: as §4, §5

DLD-1 cells [5] = experiment: SELDI-TOF MS intracellular protein expression after drug exposure, DLD-1; format: cell-based, human
Description: as §1, §2, §3

Structure (SMILES): CCc1c2c(nc3ccc(O)cc13)-c1cc3c(c(=O)n1C2)COC(=O)[C@]3(O)CC [SN-38, 7-ethyl-10-hydroxycamptothecin]
- anti-tumor activity relative to that of CPT-11 [1]: about 100 times to some thousand times
- cell viability (HCT116 cells [2]; HCT116, 100 nM SN-38, 72 hours): about 24%
- intracellular protein A level (m/z 16,450 to 16,620) after drug exposure (HCT116 cells [3]): protein level increase
- intracellular protein B level (m/z 22,080 to 22,310) after drug exposure (HCT116 cells [3]): protein level increase
- cell viability (DLD-1 cells [4]; DLD-1, 100 nM SN-38, 72 hours): about 76%
- intracellular protein A level after drug exposure (DLD-1 cells [5]): no significant difference
- intracellular protein B level after drug exposure (DLD-1 cells [5]): no significant difference

Structure (SMILES): O=c1[nH]cc(F)c(=O)[nH]1 [5-FU, Fluorouracil]
- cell viability (HCT116 cells [2]; HCT116, 100 μM 5-FU, 48 hours): about 24%
- intracellular protein A level (m/z 16,450 to 16,620) after drug exposure (HCT116 cells [3]): protein level increase
- cell viability (DLD-1 cells [4]; DLD-1, 100 μM 5-FU, 48 hours): about 49%
- intracellular protein A level after drug exposure (DLD-1 cells [5]): no significant difference
